These results are taken from publication PMC9040839 (mBio, 2022).

“And” between values parts separate entries of the source, which are not always exact repeats. Equal values may be shown once. “Also recorded” adds a separate entry of the source. Read-outs that look alike come from different tables or passages of the source.

One assay has as its target PctD(PA4633)-LBD (Pseudomonas aeruginosa, UniProt Q9HVF8). In words: biochemical. Particulars: for KD / ΔH: ITC, 25°C, pH 7.5. Here is the method: Measurements were made using a VP-ITC microcalorimeter (MicroCal, Inc., Northampton, MA) at 25°C. […] The mean enthalpies from the injection of ligands into the buffer were subtracted from raw data prior to data fitting using the “one binding site model” of the MicroCal version of the ORIGIN software.

The target in a further assay is PacA(ECA_RS10935)-LBD (Pectobacterium atrosepticum, UniProt Q6D515). In words: Isothermal titration calorimetry of PacA-LBD with ligands. The assay is classed as binding, P. atrosepticum SCRI1043. The settings on record: ITC, 25°C, pH 7.0.
Chain of PacA(ECA_RS10935)-LBD (Q6D515 entry or part of it): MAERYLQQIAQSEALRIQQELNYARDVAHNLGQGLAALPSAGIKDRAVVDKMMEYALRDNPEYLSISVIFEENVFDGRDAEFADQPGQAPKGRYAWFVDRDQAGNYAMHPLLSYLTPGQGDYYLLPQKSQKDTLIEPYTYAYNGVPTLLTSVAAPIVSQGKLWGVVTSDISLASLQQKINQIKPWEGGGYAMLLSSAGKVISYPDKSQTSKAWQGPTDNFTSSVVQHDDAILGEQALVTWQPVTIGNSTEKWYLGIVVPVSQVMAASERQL
Assay [1] relates to P. aeruginosa PAO1. The class given is cell-based, Pseudomonas aeruginosa. The settings on record: capillary assay; for concentration of maximal chemotaxis response / response threshold of chemotaxis: 30 min; for maximal accumulation: at 10 μM. Here is the method: (§1) Overnight cultures in M9 minimal medium supplemented with 6 mg/L Fe-citrate, trace elements ([89]), and 15 mM glucose were used to inoculate fresh medium to an OD660 of 0.05. Cells were cultured at 30°C (Pectobacterium atrosepticum, Pantoea agglomerans, Serratia plymuthica, Pseudomonas stutzeri, Agrobacterium tumefaciens, Dickeya solani, Pseudomonas savastanoi pv. savastanoi) or 37°C (P. aeruginosa, E. coli, Salmonella enterica serovar Typhimurium) to an OD660 of 0.4 to 0.5. Subsequently, cells were washed twice by centrifugation (1,667 × g for 5 min at room temperature) and resuspension in chemotaxis buffer (50 mM KH2PO4/K2HPO4, […], 0.05% [vol/vol] glycerol, pH 7.0) and then resuspended in the same buffer at an OD660 of 0.1. Aliquots (230 μL) of the resulting cell suspension were placed into the wells of 96-well microtiter plates. Then, 1-μL capillaries (Microcaps, Drummond Scientific) were heat-sealed at one end and filled with buffer (control) or chemoeffector solution prepared in chemotaxis buffer. The capillaries were rinsed with sterile water and immersed into the bacterial suspensions at their open ends. After 30 min, capillaries were removed from the wells, rinsed with sterile water, and emptied into 1 mL of chemotaxis buffer. Serial dilutions were plated onto M9 minimal medium plates supplemented with 20 mM glucose, incubated at 30°C or 37°C prior to colony counting. Data were corrected with the number of cells that swam into buffer containing capillaries. Data are the means and standard deviations of three biological replicates conducted in triplicate.

The subject of a further assay is P. atrosepticum SCRI1043. In words: Capillary chemotaxis assay. The class given is cell-based, Pectobacterium atrosepticum. The settings on record: 1 mM chemoeffector. Here is the method:
as §1

For assay [2], the system named is P. aeruginosa PAO1. In words: Growth experiments with Biolog compound array PM2A. The class given is cell-based, Pseudomonas aeruginosa. The settings on record: M9 minimal medium, 96-well plate, 48 h, 37°C. Here is the method:
PAO1 was grown overnight in M9 minimal medium containing 10 mM glucose. Cultures were washed twice and then diluted to an OD600 of 0.02 in either M9 or M8 medium (M9 minimal medium without NH4Cl) containing 10 mM glucose and medium supplemented with each of the compounds present in the Biolog compound array PM2A (https://www.biolog.com/wp-content/uploads/2020/04/00A-042-Rev-C-Phenotype-MicroArrays-1-10-Plate-Maps.pdf) as sole carbon source. Then, 200 μL of these cultures were transferred into microwell plates, and growth at 37°C was followed on a Bioscreen microbiological growth analyzer (Oy Growth Curves Ab Ltd., Helsinki, Finland).

The next assay has as its target PctD-Tar hybrid (Pseudomonas aeruginosa, UniProt Q9HVF8). Put plainly: cell-based.
Assay [3] relates to E. coli strain UU1250 expressing PctD-Tar. The assay is classed as cell-based. Here is the method:
The microfluidic assay was performed as previously described, using a chip with 24 parallel microchannels ([105]). […]. Cells were harvested by centrifugation and washed twice with tethering buffer. Chemoeffectors were dissolved in tethering buffer at a concentration of 50 mM, and the pH was adjusted to 7.0. The chemical source microchannels were filled with 4% (wt/vol) agarose gel to create a semipermeable barrier. E. coli cells were added to the reservoir well and allowed to spread for 30 min into the channels. Compounds were added to the source well and allowed to form a concentration gradient. Cell fluorescence was recorded with a Ti-E inverted microscope system (Nikon Instruments Europe BV, Amsterdam, Netherlands) using a 20×lens objective. Data were analyzed using ImageJ (Wayne Rasband, NIH, USA).

Assay [4] concerns Agrobacterium tumefaciens C58. Put plainly: Capillary chemotaxis assay. The class given is cell-based. Particulars: 1 mM acetylcholine. Here is the method: as §1, with “Data were corrected with the number of cells that swam into buffer containing capillaries. Data are the means and standard deviations of three biological replicates conducted in triplicate.” left out
For the next assay, the system named is Dickeya solani MK10. Put plainly: Capillary chemotaxis assay. The class given is cell-based. Particulars: 1 mM acetylcholine. On the procedure: as §1, with “Data were corrected with the number of cells that swam into buffer containing capillaries. Data are the means and standard deviations of three biological replicates conducted in triplicate.” left out
In a further assay the target is BmrR. Further details: method as in PMID 21690368. The settings on record: cited from earlier work.
A further assay addresses TlpQ. Particulars: cited from earlier work.
In a further assay the test system is P. aeruginosa. Particulars: cited from earlier work.

Chain of PctD(PA4633)-LBD (Q9HVF8 entry or part of it): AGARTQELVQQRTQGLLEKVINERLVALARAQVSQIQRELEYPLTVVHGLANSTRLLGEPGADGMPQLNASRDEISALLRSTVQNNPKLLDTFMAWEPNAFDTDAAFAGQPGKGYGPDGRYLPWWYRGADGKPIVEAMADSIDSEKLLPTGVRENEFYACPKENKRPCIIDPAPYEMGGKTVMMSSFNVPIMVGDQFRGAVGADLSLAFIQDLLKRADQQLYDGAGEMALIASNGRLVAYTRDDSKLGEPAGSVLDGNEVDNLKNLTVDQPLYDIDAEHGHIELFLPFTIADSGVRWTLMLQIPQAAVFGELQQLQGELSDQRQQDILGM
Chain of PctD-Tar hybrid (Q9HVF8 entry or part of it): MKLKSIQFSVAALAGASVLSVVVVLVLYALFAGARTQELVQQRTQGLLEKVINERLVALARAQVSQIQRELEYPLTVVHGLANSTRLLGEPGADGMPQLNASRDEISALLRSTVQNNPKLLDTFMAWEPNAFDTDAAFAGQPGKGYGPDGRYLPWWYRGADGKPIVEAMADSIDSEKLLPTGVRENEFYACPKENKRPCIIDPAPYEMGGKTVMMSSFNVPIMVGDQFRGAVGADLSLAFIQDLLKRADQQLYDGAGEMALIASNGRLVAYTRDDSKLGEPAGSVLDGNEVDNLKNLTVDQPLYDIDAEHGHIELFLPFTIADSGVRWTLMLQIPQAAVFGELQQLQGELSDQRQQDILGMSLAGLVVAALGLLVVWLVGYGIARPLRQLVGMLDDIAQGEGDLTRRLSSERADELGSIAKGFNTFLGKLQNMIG
Chain of PctD-Tar hybrid (P07017 267-553, further chain): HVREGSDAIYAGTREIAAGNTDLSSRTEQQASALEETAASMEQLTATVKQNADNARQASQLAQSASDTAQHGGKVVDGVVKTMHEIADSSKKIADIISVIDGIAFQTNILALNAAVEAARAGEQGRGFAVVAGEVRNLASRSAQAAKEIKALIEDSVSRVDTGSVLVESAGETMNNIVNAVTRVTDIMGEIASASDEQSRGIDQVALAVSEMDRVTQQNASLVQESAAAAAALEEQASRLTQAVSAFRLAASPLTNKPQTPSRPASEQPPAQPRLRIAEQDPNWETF
Procedure for PacA(ECA_RS10935)-LBD: Measurements were made using a VP-ITC microcalorimeter (MicroCal, Inc., Northampton, MA) at 25°C. PA4633-LBD was dialyzed into 5 mM Tris, 5 mM PIPES [piperazine-N,N′-bis(2-ethanesulfonic acid)], 5 mM MES (morpholineethanesulfonic acid), 150 mM NaCl, 10% (vol/vol) glycerol, pH 7.5, whereas ECA_RS10935-LBD was dialyzed into 40 mM KH2PO4/K2HPO4, 10% (vol/vol) glycerol, pH 7.0. Proteins at 15 to 22 μM were placed into the sample cell and titrated with 9.6-μL aliquots of 0.5 to 10 mM ligand solutions made up in dialysis buffer. […] The mean enthalpies from the injection of ligands into the buffer were subtracted from raw data prior to data fitting using the “one binding site model” of the MicroCal version of the ORIGIN software.

`C[N+](C)(C)C[C@H](O)CC(=O)[O-]` [L-carnitine]: at PctD(PA4633)-LBD, the KD entry is listed as “No response; also recorded: could not be visualized; also recorded: No binding” and the ΔH result is reported as “No binding”. At PacA(ECA_RS10935)-LBD, this compound returned a Kd of 20 ± 2 µM and a ΔH of -4.9 ± 0.4 kcal/mol. For the same compound, in the assay with P. aeruginosa PAO1 [1], the “chemoattraction” value was “chemoattraction”, the “concentration of maximal chemotaxis response” value worked out at 10000 µM and the “response threshold of chemotaxis” value was determined as 100 µM. Further, the chemotaxis response entry in the assay with P. atrosepticum SCRI1043 is “low but reproducible chemotaxis”. Further, the “growth as carbon source” value with P. aeruginosa PAO1 [2] is recorded as “significant growth”. Further, the EC50 at PctD-Tar hybrid amounted to 31 ± 6 µM.

Take `CC(=O)OCC[N+](C)(C)C` [acetylcholine]: the figures for the ΔH at PctD(PA4633)-LBD and at PacA(ECA_RS10935)-LBD were -12.2 ± 1.0 kcal/mol and “No binding”, respectively. The KD entry is “fails to recognize; also recorded: absence of binding” at PacA(ECA_RS10935)-LBD and “No binding” on PacA(ECA_RS10935)-LBD (listed as Acetylcholine). Also, in the assay with P. aeruginosa PAO1 [1], the “concentration of maximal chemotaxis response” value came out at 10 µM. The “response threshold of chemotaxis” value in the assay with P. aeruginosa PAO1 [1] worked out at 1 µM. The maximal accumulation in the assay on P. aeruginosa PAO1 [1] is ~300,000 bacteria per capillary. Also, the “chemoattraction in microfluidic assay” value in [3] (50 mM in source channel) was “much stronger chemoattraction”. In the assay with P. atrosepticum SCRI1043, the chemotaxis response entry is recorded as “failed to respond”. For the same compound, the magnitude of chemotaxis result in assay [4] was “comparable to that in P. aeruginosa”; with Dickeya solani MK10, “about a third of that observed in P. aeruginosa”. At BmrR, the Kd is 6.6 µM.

With `C[N+](C)(C)CC(=O)O` [betaine], at PctD(PA4633)-LBD, the Kd stood at 990 ± 59 µM, the KD result is on record as “low affinity” and the ΔH was -2.4 ± 4.1 kcal/mol. On PacA(ECA_RS10935)-LBD, this compound displayed a Kd of 7.5 ± 0.1 µM and a ΔH of -16.1 ± 0.1 kcal/mol. The “chemoattraction” value with P. aeruginosa PAO1 [1] was “comparable to that of L-carnitine”. Besides, the chemotaxis response entry in the assay on P. atrosepticum SCRI1043 is given as “low but reproducible chemotaxis”. Besides, a half-maximal response at PctD-Tar hybrid (EC50) required 150 ± 25 µM.

At PctD(PA4633)-LBD, `C[N+](C)(C)CCO` [choline] showed a dissociation constant (Kd) of 2.6 ± 0.1 µM and a ΔH of -20.3 ± 0.3 kcal/mol. At PacA(ECA_RS10935)-LBD, this compound displayed a dissociation constant (Kd) of 113 ± 16.4 µM and a ΔH of -2.1 ± 0.2 kcal/mol. Also, in the assay with P. aeruginosa PAO1 [1], the “concentration of maximal chemotaxis response” value worked out at 10 µM, the “response threshold of chemotaxis” value is 0.1 µM and the maximal accumulation was ~300,000 bacteria per capillary. Moreover, the “chemoattraction in microfluidic assay” value in [3] was “much stronger chemoattraction”. Further, the chemotaxis response result in the assay on P. atrosepticum SCRI1043 is given as “low but reproducible chemotaxis”. The compound further came in with an EC50 at PctD-Tar hybrid of 0.04 ± 0.01 µM.

`NCCc1c[nH]cn1` [histamine]: the dissociation constant Kd at TlpQ is 0.64 µM and 1.2 µM. In addition, the “lowest concentration giving attraction” value in the assay on P. aeruginosa was 500 nM.

Usually Kd stands for the equilibrium constant for the complex coming apart. The EC50 is the concentration needed to bring the measured effect to its halfway point.
